Test results reported in PubChem BioAssay AID1919013 (Molecular Pharmacology Branch, DTP, NCI, 2023).
Several values for one entry are separate records, joined by “and”; a condition that tells them apart may be missing. Equal values may be shown once. Each block holds one molecule with its values, some of them ahead of it.

Test system: LG0703-F498-PDC complex spheroid growth
Experiment: Anticancer human tumor LG0703-F498-PDC patient-derived lung adenocarcinoma cell line growth inhibition [AhR]
Conditions: for viability, T/C: stronger effect = lower value
Procedure, shortened: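 Agents were dosed in half-log steps down from roughly clinical Cmax, or from 10 microM where Cmax was unknown, alone and with AhR antagonists. Read-out: percent test/control growth of tumor spheroids containing HUVEC and MSC stromal cells.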

[1] = curve of first compound, second compound 0.1 µM
[2] = curve of first compound, second compound 0.316 µM
[3] = curve of first compound, second compound 1 µM
[4] = curve of first compound, second compound 3.16 µM
[5] = curve of first compound, second compound 10 µM
[6] = second compound 0.1 µM, first compound 0.00949 µM
[7] = second compound 0.1 µM, first compound 0.03 µM
[8] = second compound 0.1 µM, first compound 0.0949 µM
[9] = second compound 0.1 µM, first compound 0.3 µM
[10] = second compound 0.1 µM, first compound 0.949 µM
[11] = second compound 0.1 µM, first compound 3 µM
[12] = second compound 0.316 µM, first compound 0.00949 µM
[13] = second compound 0.316 µM, first compound 0.03 µM
[14] = second compound 0.316 µM, first compound 0.0949 µM
[15] = second compound 0.316 µM, first compound 0.3 µM
[16] = second compound 0.316 µM, first compound 0.949 µM
[17] = second compound 0.316 µM, first compound 3 µM
[18] = second compound 1 µM, first compound 0.00949 µM
[19] = second compound 1 µM, first compound 0.03 µM
[20] = second compound 1 µM, first compound 0.0949 µM
[21] = second compound 1 µM, first compound 0.3 µM
[22] = second compound 1 µM, first compound 0.949 µM
[23] = second compound 1 µM, first compound 3 µM
[24] = second compound 3.16 µM, first compound 0.00949 µM
[25] = second compound 3.16 µM, first compound 0.03 µM
[26] = second compound 3.16 µM, first compound 0.0949 µM
[27] = second compound 3.16 µM, first compound 0.3 µM
[28] = second compound 3.16 µM, first compound 0.949 µM
[29] = second compound 3.16 µM, first compound 3 µM
[30] = second compound 10 µM, first compound 0.00949 µM
[31] = second compound 10 µM, first compound 0.03 µM
[32] = second compound 10 µM, first compound 0.0949 µM
[33] = second compound 10 µM, first compound 0.3 µM
[34] = second compound 10 µM, first compound 0.949 µM
[35] = second compound 10 µM, first compound 3 µM
[36] = second compound 0.1 µM, first compound 0.0316 µM
[37] = second compound 0.1 µM, first compound 0.1 µM
[38] = second compound 0.1 µM, first compound 0.316 µM
[39] = second compound 0.1 µM, first compound 1 µM
[40] = second compound 0.1 µM, first compound 3.16 µM
[41] = second compound 0.1 µM, first compound 10 µM
[42] = second compound 0.316 µM, first compound 0.0316 µM
[43] = second compound 0.316 µM, first compound 0.1 µM
[44] = second compound 0.316 µM, first compound 0.316 µM
[45] = second compound 0.316 µM, first compound 1 µM
[46] = second compound 0.316 µM, first compound 3.16 µM
[47] = second compound 0.316 µM, first compound 10 µM
[48] = second compound 1 µM, first compound 0.0316 µM
[49] = second compound 1 µM, first compound 0.1 µM
[50] = second compound 1 µM, first compound 0.316 µM
[51] = second compound 1 µM, first compound 1 µM
[52] = second compound 1 µM, first compound 3.16 µM
[53] = second compound 1 µM, first compound 10 µM
[54] = second compound 3.16 µM, first compound 0.0316 µM
[55] = second compound 3.16 µM, first compound 0.1 µM
[56] = second compound 3.16 µM, first compound 0.316 µM
[57] = second compound 3.16 µM, first compound 1 µM
[58] = second compound 3.16 µM, first compound 3.16 µM
[59] = second compound 3.16 µM, first compound 10 µM
[60] = second compound 10 µM, first compound 0.0316 µM
[61] = second compound 10 µM, first compound 0.1 µM
[62] = second compound 10 µM, first compound 0.316 µM
[63] = second compound 10 µM, first compound 1 µM
[64] = second compound 10 µM, first compound 3.16 µM
[65] = second compound 10 µM, first compound 10 µM
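Further: luminescence taken as a proxy for viable cell amount.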
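Wherever viability, T/C is given: percent of DMSO vehicle control where 100% means growth equal to vehicle.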

Compound: CCN(c1cc(-c2ccc(CN3CCOCC3)cc2)cc(C(=O)NCc2c(C)cc(C)[nH]c2=O)c1C)C1CCOCC1 + Cc1cncc(-c2nc(NCCc3c[nH]c4ccccc34)c3ncn(C(C)C)c3n2)c1
IC50 [1]: > 3000 nM
IC50 [2]: > 3000 nM
IC50 [3]: > 3000 nM
IC50 [4]: < 9.49 nM
IC50 [5]: < 9.49 nM
viability, T/C [6]: 106%
viability, T/C [7]: 110%
viability, T/C [8]: 106%
viability, T/C [9]: 102%
viability, T/C [10]: 121%
viability, T/C [11]: 123%
viability, T/C [12]: 118%
viability, T/C [13]: 104%
viability, T/C [14]: 120%
viability, T/C [15]: 104%
viability, T/C [16]: 106%
viability, T/C [17]: 125%
viability, T/C [18]: 119%
viability, T/C [19]: 110%
viability, T/C [20]: 112%
viability, T/C [21]: 111%
viability, T/C [22]: 109%
viability, T/C [23]: 120%
viability, T/C [24]: 30.5%
viability, T/C [25]: 26.3%
viability, T/C [26]: 29.8%
viability, T/C [27]: 30.8%
viability, T/C [28]: 27.9%
viability, T/C [29]: 35.5%
viability, T/C [30]: 1.09%
viability, T/C [31]: 1.47%
viability, T/C [32]: 1.79%
viability, T/C [33]: 1.93%
viability, T/C [34]: 0.83%
viability, T/C [35]: 1.74%

Compound: Cn1ncnc1C1c2n[nH]c(=O)c3cc(F)cc(c23)NC1c1ccc(F)cc1 (configuration not stated)
viability, T/C (compound 0.000316 µM): 97.7% and 91.1% and 110%
viability, T/C (compound 0.001 µM): 106% and 103% and 98.6%
viability, T/C (compound 0.00316 µM): 96.4% and 111% and 102%
viability, T/C (compound 0.01 µM): 94% and 97.9% and 89.2%
viability, T/C (compound 0.0316 µM): 107% and 106% and 95.7%
viability, T/C (compound 0.1 µM): 86.6% and 102% and 90%
IC50 (curve of compound): > 100 nM

Compound: COc1cc(Nc2ncc3c(n2)-c2ccc(Cl)cc2C(c2c(F)cccc2OC)=NC3)ccc1C(=O)O + Cc1ccccc1N=Nc1ccc(NC(=O)c2ccnn2C)c(C)c1
IC50 [1]: > 10000 nM
IC50 [2]: 5360 nM
IC50 [3]: 6050 nM
IC50 [4]: 4050 nM
IC50 [5]: 5020 nM
viability, T/C [36]: 93.2%
viability, T/C [37]: 79.5%
viability, T/C [38]: 60.5%
viability, T/C [39]: 68.5%
viability, T/C [40]: 67.9%
viability, T/C [41]: 45.3%
viability, T/C [42]: 84.4%
viability, T/C [43]: 82.2%
viability, T/C [44]: 70.9%
viability, T/C [45]: 74%
viability, T/C [46]: 57.7%
viability, T/C [47]: 39.7%
viability, T/C [48]: 86.6%
viability, T/C [49]: 82.6%
viability, T/C [50]: 65.4%
viability, T/C [51]: 65.3%
viability, T/C [52]: 54.2%
viability, T/C [53]: 46%
viability, T/C [54]: 73.9%
viability, T/C [55]: 71.8%
viability, T/C [56]: 61.3%
viability, T/C [57]: 62.5%
viability, T/C [58]: 53.8%
viability, T/C [59]: 40.8%
viability, T/C [60]: 70.9%
viability, T/C [61]: 61.5%
viability, T/C [62]: 62.5%
viability, T/C [63]: 70.4%
viability, T/C [64]: 55.7%
viability, T/C [65]: 38%

Continued, in another order:

IC50 [1]: 76.8 nM
IC50 [2]: 70.8 nM
IC50 [3]: 132 nM
IC50 [4]: 85.7 nM
IC50 [5]: 119 nM
Compound: O=C(C=Cn1cnc(-c2cc(C(F)(F)F)cc(C(F)(F)F)c2)n1)NNc1cnccn1 + Cc1ccccc1N=Nc1ccc(NC(=O)c2ccnn2C)c(C)c1
viability, T/C [6]: 76.4%
viability, T/C [7]: 73%
viability, T/C [8]: 44.9%
viability, T/C [9]: 37.3%
viability, T/C [10]: 43.8%
viability, T/C [11]: 39.3%
viability, T/C [12]: 85.4%
viability, T/C [13]: 64.2%
viability, T/C [14]: 45.5%
viability, T/C [15]: 39.7%
viability, T/C [16]: 46.6%
viability, T/C [17]: 39.4%
viability, T/C [18]: 83%
viability, T/C [19]: 72%
viability, T/C [20]: 54%
viability, T/C [21]: 39.8%
viability, T/C [22]: 40%
viability, T/C [23]: 34.8%
viability, T/C [24]: 71.1%
viability, T/C [25]: 63.6%
viability, T/C [26]: 47%
viability, T/C [27]: 44.6%
viability, T/C [28]: 35.3%
viability, T/C [29]: 39.9%
viability, T/C [30]: 70%
viability, T/C [31]: 61.3%
viability, T/C [32]: 50.6%
viability, T/C [33]: 45.8%
viability, T/C [34]: 39.2%
viability, T/C [35]: 39.7%

IC50 [1]: 3930 nM
IC50 [2]: 2730 nM
IC50 [3]: 2200 nM
IC50 [4]: 725 nM
IC50 [5]: < 31.6 nM
Compound: NS(=O)(=O)OCC1CC(n2ccc3c(NC4CCc5ccccc54)ncnc32)CC1O (configuration not stated) + Cc1cncc(-c2nc(NCCc3c[nH]c4ccccc34)c3ncn(C(C)C)c3n2)c1
viability, T/C [36]: 105%
viability, T/C [37]: 113%
viability, T/C [38]: 66.7%
viability, T/C [39]: 101%
viability, T/C [40]: 44%
viability, T/C [41]: 30.7%
viability, T/C [42]: 113%
viability, T/C [43]: 97.3%
viability, T/C [44]: 53.3%
viability, T/C [45]: 97.2%
viability, T/C [46]: 39.8%
viability, T/C [47]: 28.9%
viability, T/C [48]: 111%
viability, T/C [49]: 79.7%
viability, T/C [50]: 54%
viability, T/C [51]: 106%
viability, T/C [52]: 32.6%
viability, T/C [53]: 26.2%
viability, T/C [54]: 70.9%
viability, T/C [55]: 70.1%
viability, T/C [56]: 50%
viability, T/C [57]: 55.4%
viability, T/C [58]: 27.2%
viability, T/C [59]: 16.9%
viability, T/C [60]: 2.35%
viability, T/C [61]: 3.18%
viability, T/C [62]: 6.94%
viability, T/C [63]: 2.85%
viability, T/C [64]: 6.79%
viability, T/C [65]: 5.98%

IC50 [1]: > 100 nM
IC50 [2]: > 100 nM
IC50 [3]: > 100 nM
IC50 [4]: > 100 nM
IC50 [5]: > 100 nM
Compound: Cn1ncnc1C1c2n[nH]c(=O)c3cc(F)cc(c23)NC1c1ccc(F)cc1 (configuration not stated) + Cc1ccccc1N=Nc1ccc(NC(=O)c2ccnn2C)c(C)c1
viability, T/C (second compound 0.1 µM, first compound 0.000316 µM): 97.2%
viability, T/C (second compound 0.1 µM, first compound 0.001 µM): 88.6%
viability, T/C (second compound 0.1 µM, first compound 0.00316 µM): 103%
viability, T/C (second compound 0.1 µM, first compound 0.01 µM): 95.2%
viability, T/C [36]: 104%
viability, T/C [37]: 89.7%
viability, T/C (second compound 0.316 µM, first compound 0.000316 µM): 93.8%
viability, T/C (second compound 0.316 µM, first compound 0.001 µM): 98.1%
viability, T/C (second compound 0.316 µM, first compound 0.00316 µM): 92.6%
viability, T/C (second compound 0.316 µM, first compound 0.01 µM): 94.3%
viability, T/C [42]: 85.5%
viability, T/C [43]: 88.1%
viability, T/C (second compound 1 µM, first compound 0.000316 µM): 93.5%
viability, T/C (second compound 1 µM, first compound 0.001 µM): 89.4%
viability, T/C (second compound 1 µM, first compound 0.00316 µM): 83.3%
viability, T/C (second compound 1 µM, first compound 0.01 µM): 79.6%
viability, T/C [48]: 95.9%
viability, T/C [49]: 83.1%
viability, T/C (second compound 3.16 µM, first compound 0.000316 µM): 84.9%
viability, T/C (second compound 3.16 µM, first compound 0.001 µM): 79.9%
viability, T/C (second compound 3.16 µM, first compound 0.00316 µM): 88%
viability, T/C (second compound 3.16 µM, first compound 0.01 µM): 78.3%
viability, T/C [54]: 79.7%
viability, T/C [55]: 75.9%
viability, T/C (second compound 10 µM, first compound 0.000316 µM): 84.2%
viability, T/C (second compound 10 µM, first compound 0.001 µM): 85.2%
viability, T/C (second compound 10 µM, first compound 0.00316 µM): 77.9%
viability, T/C (second compound 10 µM, first compound 0.01 µM): 85.9%
viability, T/C [60]: 79.4%
viability, T/C [61]: 79.5%
